Data taken from US20240269337A1, “METHOD AND SYSTEM FOR COATING FILTER MEDIA” (MOLECULAR PLASMA GROUP SA, priority 2021, published 2024).
Like-named read-outs stand apart in the source and are kept apart here.

Tested on: Bacteriophage MS2
Format: cell-based
Settings: for LOG Reduction: plasma coating of precursor on Tyvek substrate, (LOD) = limit of detection

Molecule: C=CC(=O)NCCC[N+](C)(C)C.[Cl-] [APTAC, (3-Acrylamidopropyl)trimethylammonium chloride]
- LOG Reduction: 2.1 log

Molecule: CCCCCCCCCCCCCCCCCC[N+](C)(C)CCC[Si](OC)(OC)OC.[Cl-] [SiQAM, Dimethyloctadecyl[3-(trimethoxysilyl)propyl] ammonium chloride]
- LOG Reduction: 1.56 log

Molecule: Benzalkonium chloride [reference compound]
- LOG Reduction: >3.8 (LOD) log

Molecule: Citric Acid
- Avg. MS2 (log red) (Filter media sample, 6 passes): 2.15 log red
- MS2 neutralized (%) (Filter media sample, 6 passes): 99.29%
- Avg. MS2 (log red) (Filter media sample, 10 passes): 2.72 log red
- MS2 neutralized (%) (Filter media sample, 10 passes): 99.81%
- Avg. MS2 (log red) (Filter media sample, 20 passes): 2.46 log red
- MS2 neutralized (%) (Filter media sample, 20 passes): 99.65%
- Avg. MS2 (log red) (Outer wave sample, 6 passes): 2.13 log red
- MS2 neutralized (%) (Outer wave sample, 6 passes): 99.26%
- Avg. MS2 (log red) (Outer wave sample, 10 passes): 1.96 log red
- MS2 neutralized (%) (Outer wave sample, 10 passes): 98.90%
- Avg. MS2 (log red) (Outer wave sample, 20 passes): 2.71 log red
- MS2 neutralized (%) (Outer wave sample, 20 passes): 99.81%
- LOG Reduction: >5.0 (LOD) log
